Experimental findings from patent US20120308567A1, “USE OF TYROSINE KINASE INHIBITORS FOR TREATMENT OF PROLACTINOMA” (CEDARS-SINAI MEDICAL CENTER, priority 2010, published 2012) are described below.

Entries after “also recorded” stand apart in the source; their conditions may differ.

One test concerns HER2CA GH3 tumors. The experiment in a line: HER2CA GH3 subcutaneous tumors in Wistar-Furth rats. In kind it is in vivo, rat. Conditions: for suppression of postmortem tumor weight / suppression of serum PRL levels / HER2CA tumor volume: Wistar-Furth rats; for suppression of postmortem tumor weight / suppression of serum PRL levels: 100 mg/kg daily oral gavage; for HER2CA tumor volume: 100 mg/kg daily oral gavage from day 3 after inoculation, vehicle 924±48. As to the method: B-C. […] (B). Tumor weights were measured after euthanasia (C). Serum PRL levels were measured by RIA (D), and ex vivo Realtime PCR performed (E). Tumor volumes were calculated using the formula, π/6×large diameter×small diameter^2.
In accordance with Institutional Animal Care and Use Committee guidelines, 4-5 wk old female Wistar-Furth rats (Harlan Sprague Dawley, Inc.) were inoculated with pcDNA3 (n=6) or HER2CA (n=6) cells (3×10^6 cells/rat). Rats were fed with a commercial pelleted diet ad libitum and tap water. Tumor volumes were measured with a caliper and calculated using the formula, π/6×large diameter×small diameter^2 as previously described (8). […] 500 μl blood was collected twice for hormone assessment (before inoculation, 2 days after inoculation) by retro-orbital bleeding. This procedure was performed under isoflurane inhalational anesthesia via a nose cone connected to a rodent anesthesia machine (Kent Scientific Corporation). On the last treatment day (day 7), rats were euthanized within 3 h of drug administration. Cardiac blood was collected with 18-gauge syringes and tumors excised and weighed. Fragments of each tumor were fixed in formalin and embedded in paraffin for immunohistochemical staining, preserved in RNA later solution (Ambion) for subsequent RNA extraction and frozen in liquid nitrogen for subsequent protein extraction.
To evaluate in vivo effects of HER2 overexpression on lactosomatotroph tumor growth, HER2CA or pcDNA3 transfectants were inoculated subcutaneously into female Wistar-Furth rats. […] Next, the effects of lapatinib administration on tumor growth and hyperprolactinemia were examined. […] After euthanasia, tumors were excised and immediately weighed and processed.

In the next test the test system is human prolactinoma cells. Put plainly: Realtime PCR of PRL in primary human prolactinoma cell cultures. It counts as cell-based. Conditions: for suppression of PRL mRNA levels: 24 hr. The protocol:
A, B, D, and E. After trans-sphenoidal surgery of human prolactinomas, tumor cells were cultured. […] PRL levels in culture media were measured using RIA (B). H&E and PRL staining of tumor and confocal immunocytochemistry of EGFR and HER2 (Tumor A) (C), or for Tumor B (F). Magnification of these figures was 100×. […] PRL levels in culture media were measured using RIA (E). Prolactinoma cells (Tumor B) were treated with U0126 (0.1-5 μM) for 24 hr, and Realtime PCR of PRL performed (G).
Total RNA was extracted with Trizol reagent (Invitrogen) according to instructions of the manufacturer. The amount and the integrity of RNA were assessed by measurement of absorbance at 260 and 280 nm. Total RNA was reverse-transcribed into first-strand cDNA using iScript cDNA synthesis kit (Bio-Rad Laboratories, Inc.) according to the manufacturer. Quantitative PCR reactions were carried out in the iQ5 Multicolor Real-time PCR Detection System (Bio-Rad Laboratories, Inc.) as described (8). Certified RT^2 primer assays for rat GH, PRL and human PRL were purchased from SuperArray. Primer sequences (Invitrogen) were 5′-[…]-3′ (18S rRNA forward (F)), 5′-[…]-3′ (18S rRNA reverse (R)), 5′-[…]-3′ (human (3-actin F), 5′-[…]-3′ (human (3-actin R), 5′-[…]-3′ (human GAPDH F), 5′-[…]-3′ (human GAPDH R).
Human prolactinoma tissues were obtained at the time of surgery (Pituitary Center, Cedars-Sinai Medical Center) and transferred in 0.3% BSA containing DMEM according to an IRB-approved protocol. After washing with medium, tumor tissues were chopped with a sterile scalpel into approximately 1-2 mm pieces. Tissues were rinsed and digested with DMEM containing 0.3% BSA, 0.35% collagenase, and 0.15% hyaluronidase at 37° C. for 30 min The mixture was centrifuged at 1,500 rpm for 5 min at 4° C., and the cell pellet resuspended in an appropriate volume of culture medium containing 10% FBS and antibiotics in 48 well plates. After 24 hr incubation with serum depleted starvation medium (DMEM with 0.3% BSA), treatment agents were added with fresh serum-depleted medium (0.3% BSA), and medium collected for RIA. RNA was extracted after 24 hr treatment. Medium was also collected at baseline. To normalize for cell number effect, the PRL value of treated medium was divided by that of pre-treatment starvation medium to obtain a treated value for each well (n=4).

The test system of test [1] is GH3 cells stably expressing HER2CA. The experiment in a line: Western blotting of cleaved caspase-3 (apoptosis). Conditions: 0.1-10 μM, 24 hr. For orientation: A western blot detects proteins with antibodies after separation by electrophoresis.
Test [2] has as its system EGF-induced HER2 and MAPK autophosphorylation. Put plainly: Western blotting of EGF-induced ErbB signaling and intracellular PRL in HER2CA GH3 cells. In kind it is cell-based, rat.
Experimental: GH3 rat lacto-somatotroph tumor cells secreting PRL and GH were purchased from the American Type Culture Collection. HER2CA cells were generated by transfection with pcDNA3-HER2CA (V654E) purchased from Addgene (Addgene plasmid 16259). Stable colonies were selected in the presence of 500 μg/ml G418 (Invitrogen). A vector control cell line pcDNA3 was simultaneously established by transfecting pcDNA3 that lacked inserted cDNA. After selection and propagation of stable transfectants, cells were cultured in DMEM/F12 medium containing 15% horse serum, 2.5% FBS, penicillin/streptomycin, and 500 μg/m G418. After synchronization by serum starvation (medium containing 0.2% bovine serum albumin for ˜24 h), cells with treatment agents was grown in fresh serum-depleted medium (0.2% bovine serum albumin), and samples collected at the indicated times.
Proteins were separated on 4 to 12% NuPAGE Bis-Tris gels and electro-transferred for 3 h to polyvinylidene difluoride membranes (Invitrogen). Membranes were blocked for 1 h in 5% nonfat dry milk or 5% bovine serum albumin in TBS-T buffer, and incubated overnight with primary antibody. The following primary antibodies were used: anti-pErk1/2, anti-Erk1/2, anti-Akt, anti-pEGFR (Tyr1068), anti-EGFR, anti-pHER3/ErbB3 (Tyr1289), and anti-Cleaved Caspase-3 from Cell Signaling Technology, anti-pNeu (Tyr1248), anti-Neu (C-18), anti-HER3/ErbB3, anti-PRL, and anti-GAPDH from Santa Cruz Biotechnology, and anti-pAkt (Ser473) from Abcam. After washing with TBS-T, membranes were incubated with peroxidase-conjugated secondary antibody for 1 h (5% nonfat dry milk or 5% bovine serum albumin in TBS-T buffer).
Test [3] concerns estrogen induced pituitary lactotroph tumor. Put plainly: Estrogen induced pituitary lactotroph tumor in Fischer-344 rats. Conditions: F344 rats. It counts as in vivo, rat. The protocol:
17β-estradiol-filled capsules or empty capsule were inoculated subcutaneously in F344 rats (4-5 weeks of age) for one month. A. Western blotting analysis was performed using collected pituitary or pituitary tumor. Next 17β-estradiol-filled capsules were inoculated subcutaneously in F344 rats (4-5 weeks of age) for 2 months. After capsule excision, oral vehicle or lapatinib was administered for 2 weeks. […] C. Tumor weights were measured after euthanasia. D. Serum PRL and GH levels were measured by RIA.
Next, 4-5 wk ovariectomized female Fishcer-344 rats (Harlan Sprague Dawley, Inc.) were s.c. implanted with an 17β-estradiol-filled […] brand capsule (Dow Corning Corp., Medical Grade Tubing Special; length, 3 cm; od, 0.125 in.; id, 0.062 in.) under isoflurane inhalational anesthesia. Two months thereafter, when serum PRL levels reached 3000 ng/ml, 17β-estradiol-filled capsules were extracted, and animals were treated with lapatinib (100 mg/kg) or vehicle (0.5% methylcellose, 0.5% tween80/PBS; 100 μl) via oral gavage twice a day for 2 weeks. 500 μl blood was collected for hormone assessment by retro-orbital bleeding under isoflurane inhalational anesthesia. On the last treatment day (day 14), rats were euthanized within 3 h of drug administration. Cardiac blood was collected and pituitary tumors excised and weighed. Fragments of each tumor were fixed in formalin and embedded in paraffin, preserved in RNA later solution, or frozen in liquid nitrogen.
Next, the inventors tested Fischer-344 rats treated with 17β-estradiol as a model for pituitary prolactinomas (24). […] The inventors then extracted the capsule, and initiated oral lapatinib or vehicle treatment for a subsequent 2 weeks.

The mark [4] stands for this setting: Tumor A, lapatinib 0.1-10 μM or gefitinib 10 μM.
Setting [5] is: 100 mg/kg oral gavage twice a day for 2 weeks.

On to `COc1cc2ncnc(Nc3ccc(F)c(Cl)c3)c2cc1OCCCN1CCOCC1` [gefitinib], for which, in the test with HER2CA GH3 tumors, the “suppression of postmortem tumor weight” value is approximately 30%, the “suppression of serum PRL levels” value is recorded as approximately 40% and the HER2CA tumor volume is listed as 695±63 mm^3. Moreover, in the test on human prolactinoma cells (setting [4]), the “suppression of PRL mRNA levels” value was “no effect”. The “suppression of PRL mRNA levels” value in the test with human prolactinoma cells (Tumor B, 0.01-10 μM) is reported as approximately 45%. Further, the “induction of cleaved caspase-3” value in test [1] was “dose-dependently induced cleaved caspase3”.

For the compound `CS(=O)(=O)CCNCc1ccc(-c2ccc3ncnc(Nc4ccc(OCc5cccc(F)c5)c(Cl)c4)c3c2)o1` [lapatinib, Lapatinib], the “intracellular PRL levels” value in test [2] (Western blotting) is recorded as “decreased”. Further, the “attenuation of Her1/EGFR and Her2/Neu signaling (HER2 and MAPK autophosphorylation)” value in test [2] (pretreated 0.1-10 μM 45 min, EGF 5 nM 10 min) was “attenuated EGF-induced HER2 and MAPK autophosphorylation more markedly than gefitinib; also recorded: blocked”. In the test on HER2CA GH3 tumors, the “suppression of postmortem tumor weight” value is approximately 40%, the “suppression of serum PRL levels” value is approximately 50% and the HER2CA tumor volume is 549±45 mm^3. Besides, the “change in Her2CA-GH3 tumor size” value in the test on HER2CA GH3 tumors (rats, after one week of treatment) is recorded as −40%. In test [3] (setting [5]), the “serum GH levels” value was “not altered” and the “suppression of serum PRL levels” value is reported as approximately 35%. The “suppression of tumor weight” value in test [3] (100 mg/kg oral gavage twice a day for 2 weeks after capsule extraction) is reported as approximately 35%. The “pituitary tumor growth induced by estrogen” value in test [3] (oral treatment for 2 weeks) was “attenuated”. Moreover, the “suppression of PRL mRNA levels” value in the test on human prolactinoma cells (setting [4]) is approximately 90%. The “suppression of PRL mRNA levels” value in the test with human prolactinoma cells (Tumor B, 0.01-10 μM) is on record as approximately 45%. Also, the “suppression of human PRL mRNA expression” value in the test with human prolactinoma cells (human primary prolactinoma tumor cell cultures, tumor not named) is approximately 80%. Besides, the “induction of cleaved caspase-3” value in test [1] is “dose-dependently induced cleaved caspase3; also recorded: induced cleaved-caspase 3”.
